From patent US11534437B2, “Methods of treating radiation induced gastrointestinal syndrome (RIGS) and related disease states using compound 512” (BCN Biosciences L.L.C., priority 2017, dated 2022)

Legend:
plasma cytokines = experiment: Plasma cytokine levels in rodents after lower thoracic radiation; assay type: in vivo; details: LTI + 512, 5 mg/kg 512
From the text: Ctl, control with no treatment. LTI, lower thoracic radiation, LTI+512, radiation, and 512. The cytokine phenotype is anti-inflammatory where IL-6 is an anti-inflammatory cytokine required for controlling local or systemic acute inflammatory responses and IL-1 is pro inflammatory and so forth.

[1] = test system: HEK293 cells having TCF/LEF luciferase reporter construct; experiment: TCF/LEF luciferase reporter assay for canonical WNT activity; assay type: cell-based; details: LiCl 10 mM, 24 hr
Procedure: To determine the canonical WNT activity in 512 (28.78 μM) HEK293 cells having TCF/LEF luciferase reporter construct were treated with 512 or vehicle control. LiCl (10 mM) treatment was used as positive control for luciferase activity. Luciferase activity was determined 24 hr after using Dual-Luciferase® Reporter Assay System (Promega) as per manufacturer's protocol. HEK293 cells having FOPFLASH construct were used as negative control. […] WNT-β catenin signaling is well known to promote the self renewal and differentiation of LGR5+ epithelial (lung, oral, intestinal) stem cells.

O=[N+]([O-])c1ccc(S(=O)(=O)N2CCN(c3ccccc3)CC2)cc1 [Compound 512, 1-[(4-nitrobenezene)sulfonyl]-4-phenyl piperazine]
plasma IL-6 level (plasma cytokines; Ctl 7, LTI 15): 88 | plasma KC level (plasma cytokines; Ctl 10, LTI 210): 245 | plasma IL-23 level (plasma cytokines; Ctl 13, LTI 79): 23 | plasma MCP-1 level (plasma cytokines; Ctl 17, LTI 103): 77 | plasma MIP-1b level (plasma cytokines; Ctl 25, LTI 88): 13 | plasma IL-1b level (plasma cytokines; Ctl 32, LTI 50): 7

[Cl-].[Li+] [LiCl]
luciferase activity (positive control) [1]: significant increase in Luciferase activity
